The record followed here is PMC9127112, “Opening opportunities for Kd determination and screening of MHC peptide complexes” (Communications Biology, 2022).

Experiment [1] deals with empty disulfide-stabilized HLA-A*02:01(Y84C/A139C) complex of heavy chain and beta-2 microglobulin (human). Nature of the experiment: nanoscale differential scanning fluorimetry (nDSF, thermal stabilisation). (In general: Differential scanning fluorimetry follows unfolding on heating by fluorescence.)
The target is the same in experiment [2]. In words: native MS.
Experiment [3] has as its target T1, dsA2: HLA-A*02:01(Y84C/A139C) disulfide mutant heavy chain / β2m complex (Homo sapiens, UniProt P04439, D140Y/D185E/D98H/E176V/E277Q/G131W/G231S/I119V/I121R/I166T/I218V/L300P/L318F/N151K/N90K/P208A/P217A/Q86G/Q94H/R138H/R169H/T345S/A163C/Y108C).
T1 construct: made in house; host or cells: Escherichia coli (pET3a)
Nature of the experiment: nanoscale differential scanning fluorimetry (nDSF) thermal stability. Conditions: for Tm: dsA2 2 µM, at least two independent measurements. Type of experiment: binding.

For experiment [4], the target named is T1, dsA2: HLA-A*02:01(Y84C/A139C) disulfide mutant heavy chain / β2m complex. In words: native mass spectrometry (nMS) of peptide binding to empty dsA2.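 Further: native nano-electrospray MS on Q-Tof II in positive mode, dsA2 at 10 µM with peptide 50–200 µM, incubated ≥10 min on ice, argon collision gas.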 Conditions: cone 150 V, ratio 1:5, raw data, mean of >=3 measurements.
In experiment [5] the target is empty disulfide-stabilized HLA-A*02:01(Y84C/A139C) in complex with beta-2 microglobulin (human). In words: isothermal analysis of nanoscale differential scanning fluorimetry (iDSF).
Experiment [6] has the same target. In words: native MS.
Experiment [7] deals with empty disulfide-stabilized HLA-A*02:01(Y84C/A139C) complex of heavy chain and beta-2 microglobulin (human). In words: native MS. The source holds these as a separate data set.
The target is the same in experiment [8]. In words: nanoscale differential scanning f.
In experiment [9] the target is empty disulfide-stabilized HLA-A*02:01(Y84C/A139C) in complex with beta-2 microglobulin (human). In words: isothermal analysis of nanoscale.

Several values for one entry are separate records, joined by “and”; a condition that tells them apart may be missing. Equal entries are not always repeated.

The term Kd denotes the equilibrium constant for the complex coming apart. In experiment [1], “LV8, NV9 without the N-terminal asparagine (peptide)” gave a ∆Tm of 11.6 K. Further, the Kd in experiment [2] was 0.07 µM.

As a reminder, the Tm is the temperature at the midpoint of the melting transition. Take YPNVNIHNF [YF9, reference compound]: the melting temperature (Tm) in experiment [3] (peptide 0.2 µM) came out at 36.1 °C; in [3] (peptide 2 µM) it was 36.1 °C; in experiment [3] (peptide 20 µM), 36.2 °C. Also, the “∆Tm of dsA2 by peptide binding” value in [3] (protein-peptide ratio 1:10 (dsA2 2 µM), relative to empty dsA2 Tm 35.7 ± 0.6 °C, citrate phosphate buffer pH 7.6, duplicates) is reported as 1 ± 1 K. Also, the “AUC dsA2 (empty)” value in experiment [4] (acceleration voltage 10 V) was 56 ± 3% and 56%; in experiment [4] (acceleration voltage 25 V), 51%; in experiment [4] (acceleration voltage 50 V) it was 95%. Moreover, the “AUC dsA2/erucamide” value in experiment [4] (acceleration voltage 10 V) was 39 ± 2% and 39%; in experiment [4] (acceleration voltage 25 V) it was 44%; in [4] (acceleration voltage 50 V) it was 2%. For the same molecule, the “AUC dsA2/pep” value was 4 ± 2% and 4% in experiment [4] (acceleration voltage 10 V); 5% in [4] (acceleration voltage 25 V); 5% in experiment [4] (acceleration voltage 50 V). In addition, the “AUC dsA2/pep/pep” value in [4] (acceleration voltage 10 V), in experiment [4] (acceleration voltage 25 V) and in experiment [4] (acceleration voltage 50 V) was 0% throughout.

Consider “NT8 (NLVPMVAT), truncated NV9 variant (peptide)”, for which the results for the Kd in experiment [5] and in experiment [6] were 2.6 µM and 92 µM, respectively.

For the molecule “NT8, NV9 without the C-terminal valine (peptide)”, the Kd in experiment [2] was determined as 30 µM.

In the case of “NP4 (NLVP), truncated NV9 variant (peptide)”, the Kd in [5] is 50 µM; in experiment [6] it was 350 µM and 100 µM.

In experiment [1], “Ac-NV9-NH2, NV9 with an acetylated N-terminus and an amidated C-terminus (peptide)” came in with a ∆Tm of 2.7 K. In experiment [2], this molecule displayed a Kd of 7 µM.

“LV8 (LVPMVATV), truncated NV9 variant (peptide)”: the Kd in experiment [5] was found to be 0.008 µM; in [6], 17 µM.

Regarding GLGGGGGGV [GV9, simplified NV9 derivative that retains the anchor residues L and V], the other amounted to 43% in experiment [7] and 6.4 K in [8].

GLGGGGGGV [GV9 (…), simplified NV9 derivative that retains the anchor residues L and V] showed a Kd in [9] of 0.36 µM.
